Laboratory results taken from paper PMC6166661 (Neuropeptides, 2018).

Columns and labels:
C3aR1 = details: ref Cianflone et al., 2003; Murray et al., 2000; cited from earlier work
[1] = tested on: isoproterenol-stimulated lipolysis; test: Acute effect on isoproterenol-stimulated lipolysis; assay type: in vivo, rat; details: rats

Row | Compound | activity at C3aR1 (C3aR1) | change of plasma palmitate concentration during infusion ([1]; constant i.v. infusion 30 ng•min^−1, vs basal) | plasma palmitate concentration at end of experiment, of the initial value ([1]; isoproterenol infusion plus saline bolus (control group))
1 | ASP: des-arginine peptide generated from C3a by cleaving the C-terminal arginine residue (R77) | inactive | – | –
2 | CC(C)NCC(O)c1ccc(O)c(O)c1 (stereo not drawn) [isoproterenol] | – | more than doubled | ~ 75%
